What follows are compounds tested against T1, RORγ ligand binding domain (LBD) (Homo sapiens, UniProt P51449) (assay: TR-FRET Activity Assay (ligand sensing, RORγ-LBD / coactivator peptide interaction)). Details: not given.
T1 construct: made in house; host or cells: E. coli BL-21 (BL3), vector pDEST15
T1 sequence (P51449 269-508 limits assumed): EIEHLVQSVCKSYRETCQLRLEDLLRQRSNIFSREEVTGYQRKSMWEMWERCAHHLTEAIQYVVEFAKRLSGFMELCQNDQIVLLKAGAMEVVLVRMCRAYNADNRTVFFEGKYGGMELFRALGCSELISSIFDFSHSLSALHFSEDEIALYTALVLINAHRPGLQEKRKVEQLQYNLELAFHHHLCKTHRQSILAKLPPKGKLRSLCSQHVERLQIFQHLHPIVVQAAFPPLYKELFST
Assay type: biochemical
Description: This method measures the ability of putative ligands to modulate the interaction between the purified bacterial expressed RORγ ligand binding domain (LBD) and synthetic N-terminally biotinylated peptides which are derived from nuclear receptor coactivator proteins such as but not limited to SRC1 (NcoA1), SRC2 (NcoA2, TIF2), SRC3 (NcoA3), PGC1α, PGC1β, CBP, GRIP1, TRAP220, RIP140.
The ligand-binding domain (LBD) of RORγ was expressed as fusion protein with GST in […] cells using the vector pDEST15. Cells were lysed by lysozyme-treatment and sonication, and the fusion proteins purified over glutathione sepharose (Pharmacia) according to the manufacturers instructions. For screening of compounds for their influence on the RORγ-peptide interaction, the LANCE technology (Perkin Elmer) was applied. This method relies on the binding dependent energy transfer from a donor to an acceptor fluorophor attached to the binding partner of interest. For ease of handling and reduction of background from compound fluorescence LANCE technology makes use of generic fluorophore labels and time resolved detection assays were done in a final volume of 25 μL in a 384 well plate, in a Tris-based buffer system (20 mM Tris-HCl pH6.8; 60 mM KCl, 1 mM DTT; 5 mM MgCl2; 35 ng/μL BSA), containing 20-60 ng/well recombinantly expressed RORγ-LBD fused to GST, 200-600 nM N-terminally biotinylated peptide, 200 ng/well Streptavidin-xIAPC conjugate (Prozyme) and 6-10 ng/well Eu W1024-antiGST (Perkin Elmer). DMSO content of the samples was kept at 1%.
After generation of the Tris-based buffer system, the potentially RORγ modulating ligands were diluted. […] The LANCE signal was detected by a Perkin Elmer EnVision™ Multilabel Counter. The results were visualized by plotting the ratio between the emitted light at 665 nm and 615 nm. […] Ligands that promote the complex formation induce a concentration-dependent increase in time-resolved fluorescent signal.
The normalised TR-FRET assay values, using the following equation: 1000*665 nm measurement value/615 nm measurement value, were transferred to the program GraphPad Prism to generate graphs and dose response curves using the following equation:
Equation: Sigmoidal Dose-Response (Variable Slope) Y=Bottom+(Top-Bottom)/(1+10^((LogEC50−X)*HillSlope)) X is the logarithm of the concentration. Y is the response. Y starts at Bottom and goes to Top with a sigmoidal shape.
This is identical to the “four parameter logistic equation”. The IC50 values are calculated using this equation.
Cc1c(S(N)(=O)=O)cc(-c2cc(C(C)(C)C)cc(C(C)(C)CO)c2)n1CC1CCCCC1 [Example 50] was tested, and the IC50 was over 2 µM.

Same assay, conditions: read-out: RORγ activity in the TR-FRET Activity Assay (IC50 FRET), Group
CC(C)(C)c1cc(-c2cc(S(N)(=O)=O)c(C#N)n2CC2CCCCC2)cc(C(C)(C)C)c1 [Example 33, 2-Cyano-1-(cyclohexylmethyl)-5-(3,5-di-tert-butylphenyl)-1H-pyrrole-3-sulfonamide] showed an IC50 of under 0.5 µM. Compound Cc1c(S(N)(=O)=O)cc(-c2cc(C(F)(F)F)c(=O)n(CC(C)(C)C)c2)n1CC1CCCCC1 [Example 34, 1-(Cyclohexylmethyl)-2-methyl-5-(1-neopentyl-6-oxo-5-(trifluoromethyl)-1,6-dihydropyridin-3-yl)-1H-pyrrole-3-sulfonamide] has an IC50 of over 2 µM. Cc1c(S(N)(=O)=O)cc(-c2cc(C(C)(C)O)c3c(c2)C2(CCO3)CC2)n1CC1CCCCC1 [Example 37, 1-(Cyclohexylmethyl)-5-(8-(2-hydroxypropan-2-yl)spiro[chroman-4,1′-cyclopropan]-6-yl)-2-methyl-1H-pyrrole-3-sulfonamide] gave an IC50 of over 2 µM. In the case of Cc1c(S(=O)(=O)NCCC(=O)O)cc(-c2cc(C(C)(C)C)cc(C(C)(C)C)c2)n1CC1CCCCC1 [Example 39, 3-(1-(Cyclohexylmethyl)-5-(3,5-di-tert-butylphenyl)-2-methyl-1H-pyrrole-3-sulfonamido)propanoic acid], the IC50 is reported as 0.5 to 2 µM. Compound Cc1c(S(=O)(=O)NCCC(N)=O)cc(-c2cc(C(C)(C)C)cc(C(C)(C)C)c2)n1CC1CCCCC1 [Example 40, 3-(1-(cyclohexylmethyl)-5-(3,5-di-tert-butylphenyl)-2-methyl-1H-pyrrole-3-sulfonamido)propanamide] has an IC50 of under 0.5 µM. In the case of Cc1c(S(=O)(=O)NCCC(N)=O)c(Cl)c(-c2cc(C(C)(C)C)cc(C(C)(C)C)c2)n1CC1CCCCC1 [Example 41, 3-(4-chloro-1-(cyclohexylmethyl)-5-(3,5-di-tert-butylphenyl)-2-methyl-1H-pyrrole-3-sulfonamido)propanamide], the IC50 is reported as under 0.5 µM. Work on Cc1c(S(=O)(=O)NCC(=O)O)cc(-c2cc(C(C)(C)C)cc(C(C)(C)C)c2)n1CC1CCCCC1 [Example 43, 2(1-(Cyclohexylmethyl)-5(3,5-di-tert-butylphenyl)-2-methyl-1H-pyrrole-3-sulfonamido)acetic acid] yielded an IC50 of over 2 µM. Cc1c(S(=O)(=O)N2CCOCC2)cc(-c2cc(C(C)(C)C)cc(C(C)(C)C)c2)n1CC1CCCCC1 [Example 44, 4-((1-(Cyclohexylmethyl)-5-(3,5-di-tert-butylphenyl)-2-methyl-1H-pyrrol-3-yl)sulfonyl)morpholine] was tested, and the IC50 was under 0.5 µM. Work on Cc1c(S(N)(=O)=O)cc(-c2cc(C(C)(C)C)cc(C(C)(C)C#N)c2)n1CC1CCCCC1 [Example 45, 5-(3-(tert-Butyl)-5-(2-cyanopropan-2-yl)phenyl)-1-(cyclohexylmethyl)-2-methyl-1H-pyrrole-3-sulfonamide] yielded an IC50 of 0.5 to 2 µM. Cc1c(S(N)(=O)=O)cc(-c2cc(C(C)(C)C)cc(C(C)(C)C(=O)O)c2)n1CC1CCCCC1 [Example 46, 2-(3-(tert-Butyl)-5-(1-(cyclohexylmethyl)-5-methyl-4-sulfamoyl-1H-pyrrol-2-yl)phenyl)-2-methylpropanoic acid] showed an IC50 of over 2 µM. For Cc1c(S(N)(=O)=O)cc(-c2cc(C(C)(C)C)cc(C(C)(C)CN)c2)n1CC1CCCCC1 [Example 48, 5-(3-(1-Amino-2-methylpropan-2-yl)-5-(tert-butyl)phenyl)-1-(cyclohexyl-methyl)-2-methyl-1H-pyrrole-3-sulfonamide], the IC50 was over 2 µM. In the case of CC(=O)NCC(C)(C)c1cc(-c2cc(S(N)(=O)=O)c(C)n2CC2CCCCC2)cc(C(C)(C)C)c1 [Example 49, N-(2-(3-(tert-Butyl)-5-(1-(cyclohexylmethyl)-5-methyl-4-sulfamoyl-1H-pyrrol-2-yl)phenyl)-2-methylpropyl)acetamide], the IC50 is reported as over 2 µM. Cc1c(S(N)(=O)=O)cc(-c2cn(S(=O)(=O)c3ccccc3Cl)c3ccccc23)n1CC1CCCCC1 [Example 53, 5-(1-((2-Chlorophenyl)sulfonyl)-1H-indol-3-yl)-1-(cyclohexylmethyl)-2-methyl-1H-pyrrole-3-sulfonamide] gave an IC50 of 0.5 to 2 µM.
